Reference: patent US20260262643A1, “HERBICIDAL BENZOXAZINES” (FMC CORPORATION, priority 2022, published 2026)

Assays:
corn [1] = experiment: Test C postemergence; assay type: in vivo, Zea mays; conditions: 10 days
Outline: (§1)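 Pre: seeds in loam/sand, directed soil spray. Post: 1–2 leaf plants, 2–10 cm. Cmpd in non-phytotoxic solvent + surfactant. Greenhouse 10 d; visual rating vs untreated, 0 = none, 100 = complete control.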

galium = experiment: Test C postemergence; assay type: in vivo, Galium aparine; conditions: 10 days
Outline: as §1

wheat [2] = experiment: Test C postemergence; assay type: in vivo, Triticum aestivum; conditions: 10 days
Outline: as §1

green foxtail [3] = experiment: Test C preemergence; assay type: in vivo, Setaria viridis; conditions: for Foxtail, Green plant response rating: preemergence, 0 to 100 scale (0 no effect, 100 complete control)
Outline: as §1

pigweed, palmer [4] = experiment: Test C postemergence; assay type: in vivo, Amaranthus palmeri; conditions: 10 days
Outline: as §1

soybean [5] = experiment: Test C postemergence; assay type: in vivo, Glycine max; conditions: 10 days
Outline: as §1

blackgrass [6] = experiment: Test C preemergence; assay type: in vivo, Alopecurus myosuroides; conditions: for Blackgrass plant response rating: preemergence, 0 to 100 scale (0 no effect, 100 complete control)
Outline: as §1

blackgrass [7] = experiment: Test C postemergence; assay type: in vivo, Alopecurus myosuroides; conditions: 10 days
Outline: as §1

pigweed, palmer [8] = experiment: Test C preemergence; assay type: in vivo, Amaranthus palmeri; conditions: for Pigweed, Palmer plant response rating: preemergence, 0 to 100 scale (0 no effect, 100 complete control)
Outline: as §1

ragweed [9] = experiment: Test C postemergence; assay type: in vivo, Ambrosia artemisiifolia; conditions: 10 days
Outline: as §1

sedge, umbrella = experiment: Test D flooded paddy test; assay type: in vivo, Cyperus difformis; conditions: 250 g ai/ha, applied to paddy water, visual rating after 13 to 14 days, scale 0 to 100 (0 no effect, 100 complete control)
Outline: (§2)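 Seedlings reached the 2-leaf stage, then pots were flooded to 3 cm over the soil surface. Compound was applied into the water, depth was maintained, and plants stayed in the greenhouse 13 to 14 days before visual scoring (0–100) relative to controls.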

horseweed = experiment: Test C postemergence; assay type: in vivo, Erigeron canadensis; conditions: 10 days
Outline: as §1

barnyardgrass [10] = experiment: Test C preemergence; assay type: in vivo, Echinochloa crusgalli; conditions: for Barnyardgrass plant response rating: preemergence, 0 to 100 scale (0 no effect, 100 complete control)
Outline: as §1

oat, wild [11] = experiment: Test C preemergence; assay type: in vivo, Avena fatua; conditions: for Oat, Wild plant response rating: preemergence, 0 to 100 scale (0 no effect, 100 complete control)
Outline: as §1

corn [12] = experiment: Test C preemergence; assay type: in vivo, Zea mays; conditions: for Corn plant response rating: preemergence, 0 to 100 scale (0 no effect, 100 complete control)
Outline: as §1

soybean [13] = experiment: Test C preemergence; assay type: in vivo, Glycine max; conditions: for Soybean plant response rating: preemergence, 0 to 100 scale (0 no effect, 100 complete control)
Outline: as §1

rice = experiment: Test D flooded paddy test; assay type: in vivo, Oryza sativa; conditions: 250 g ai/ha, applied to paddy water, visual rating after 13 to 14 days, scale 0 to 100 (0 no effect, 100 complete control)
Outline: as §2

ryegrass, Italian [14] = experiment: Test C preemergence; assay type: in vivo, Lolium multiflorum; conditions: for Ryegrass, Italian plant response rating: preemergence, 0 to 100 scale (0 no effect, 100 complete control)
Outline: as §1

kochia [15] = experiment: Test C preemergence; assay type: in vivo, Bassia scoparia; conditions: for Kochia plant response rating: preemergence, 0 to 100 scale (0 no effect, 100 complete control)
Outline: as §1

ragweed [16] = experiment: Test C preemergence; assay type: in vivo, Ambrosia artemisiifolia; conditions: for Ragweed plant response rating: preemergence, 0 to 100 scale (0 no effect, 100 complete control)
Outline: as §1

barnyardgrass [17] = experiment: Test C postemergence; assay type: in vivo, Echinochloa crusgalli; conditions: 10 days
Outline: as §1

barnyardgrass [18] = experiment: Test D flooded paddy test; assay type: in vivo, Echinochloa crus-galli; conditions: 250 g ai/ha, applied to paddy water, visual rating after 13 to 14 days, scale 0 to 100 (0 no effect, 100 complete control)
Outline: as §2

ducksalad = experiment: Test D flooded paddy test; assay type: in vivo, Heteranthera limosa; conditions: 250 g ai/ha, applied to paddy water, visual rating after 13 to 14 days, scale 0 to 100 (0 no effect, 100 complete control)
Outline: as §2

oat, wild [19] = experiment: Test C postemergence; assay type: in vivo, Avena fatua; conditions: 10 days
Outline: as §1

wheat [20] = experiment: Test C preemergence; assay type: in vivo, Triticum aestivum; conditions: for Wheat plant response rating: preemergence, 0 to 100 scale (0 no effect, 100 complete control)
Outline: as §1

green foxtail [21] = experiment: Test C postemergence; assay type: in vivo, Setaria viridis; conditions: 10 days
Outline: as §1

kochia [22] = experiment: Test C postemergence; assay type: in vivo, Bassia scoparia; conditions: 10 days
Outline: as §1

ryegrass, Italian [23] = experiment: Test C postemergence; assay type: in vivo, Lolium multiflorum; conditions: 10 days
Outline: as §1

[24] = 125 g ai/ha, postemergence, 0 to 100 scale, 0 no effect, 100 complete control
[25] = 500 g ai/ha, postemergence, 0 to 100 scale (0 no effect, 100 complete control)
[26] = Postemergence, 125 g ai/ha, 0 to 100 scale (0 no effect, 100 complete control)
[27] = Preemergence, 125 g ai/ha, 0 to 100 scale, 0 no effect, 100 complete control

## Cc1ccc(-n2cnc(C(C)C)n2)cc1C(=O)N1CC(C(F)(F)F)Oc2c(Cl)cccc21 (single isomer, unassigned) [Compound 292]
Corn [1]; [24]
  Plant response rating, Corn: 10
Corn [1]; [25]
  Plant response rating, Corn: 20
galium; [24]
  Plant response rating, Galium: 70
galium; [25]
  Plant response rating, Galium: 80
Wheat [2]; [24]
  Plant response rating, Wheat: 20
Wheat [2]; [25]
  Plant response rating, Wheat: 30
Green foxtail [3]; 500 g ai/ha
  Foxtail, Green plant response rating: 100
Green foxtail [3]; Test C, 125 g ai/ha
  Foxtail, Green plant response rating: 90
pigweed, palmer [4]; [24]
  Plant response rating, Pigweed, Palmer: 80
pigweed, palmer [4]; [25]
  Plant response rating, Pigweed, Palmer: 80
Soybean [5]; [24]
  Plant response rating, Soybean: 100
Soybean [5]; [25]
  Plant response rating, Soybean: 100
Blackgrass [6]; 500 g ai/ha
  Blackgrass plant response rating: 90
Blackgrass [6]; Test C, 125 g ai/ha
  Blackgrass plant response rating: 30
Blackgrass [7]; [24]
  Plant response rating, Blackgrass: 0
Blackgrass [7]; [25]
  Plant response rating, Blackgrass: 20
pigweed, palmer [8]; 500 g ai/ha
  Pigweed, Palmer plant response rating: 100
pigweed, palmer [8]; Test C, 125 g ai/ha
  Pigweed, Palmer plant response rating: 100
Ragweed [9]; [24]
  Plant response rating, Ragweed: 30
Ragweed [9]; [25]
  Plant response rating, Ragweed: 20
sedge, umbrella
  Plant response rating, Sedge, Umbrella (Flood): 0
horseweed; [24]
  Plant response rating, Horseweed: 20
horseweed; [25]
  Plant response rating, Horseweed: 60
Barnyardgrass [10]; 500 g ai/ha
  Barnyardgrass plant response rating: 90
Barnyardgrass [10]; Test C, 125 g ai/ha
  Barnyardgrass plant response rating: 20
oat, wild [11]; 500 g ai/ha
  Oat, Wild plant response rating: 80
oat, wild [11]; Test C, 125 g ai/ha
  Oat, Wild plant response rating: 40
Corn [12]; 500 g ai/ha
  Corn plant response rating: 10
Corn [12]; Test C, 125 g ai/ha
  Corn plant response rating: 10
Soybean [13]; 500 g ai/ha
  Soybean plant response rating: 90
Soybean [13]; Test C, 125 g ai/ha
  Soybean plant response rating: 40
rice
  Plant response rating, Rice (Flood): 0
ryegrass, Italian [14]; 500 g ai/ha
  Ryegrass, Italian plant response rating: 100
ryegrass, Italian [14]; Test C, 125 g ai/ha
  Ryegrass, Italian plant response rating: 90
Kochia [15]; 500 g ai/ha
  Kochia plant response rating: 60
Kochia [15]; Test C, 125 g ai/ha
  Kochia plant response rating: 30
Ragweed [16]; 500 g ai/ha
  Ragweed plant response rating: 20
Ragweed [16]; Test C, 125 g ai/ha
  Ragweed plant response rating: 20
Barnyardgrass [17]; [24]
  Plant response rating, Barnyardgrass: 10
Barnyardgrass [17]; [25]
  Plant response rating, Barnyardgrass: 20
Barnyardgrass [18]
  Plant response rating, Barnyardgrass (Flood): 0
ducksalad
  Plant response rating, Ducksalad (Flood): 0
oat, wild [19]; [24]
  Plant response rating, Oat, Wild: 0
oat, wild [19]; [25]
  Plant response rating, Oat, Wild: 50
Wheat [20]; 500 g ai/ha
  Wheat plant response rating: 50
Wheat [20]; Test C, 125 g ai/ha
  Wheat plant response rating: 20
Green foxtail [21]; [24]
  Plant response rating, Foxtail, Green: 30
Green foxtail [21]; [25]
  Plant response rating, Foxtail, Green: 40
Kochia [22]; [24]
  Plant response rating, Kochia: 70
Kochia [22]; [25]
  Plant response rating, Kochia: 90
ryegrass, Italian [23]; [24]
  Plant response rating, Ryegrass, Italian: 0
ryegrass, Italian [23]; [25]
  Plant response rating, Ryegrass, Italian: 60

## COC(C)c1ncn(-c2ccc(C)c(C(=O)N3CC(C)Oc4c(Cl)cccc43)c2)n1 (mixture of isomers) [Compound 359]
Corn [1]; [25]
  Plant response rating, Corn: 80
Corn [1]; [26]
  Plant response rating, Corn: 40
galium; [25]
  Plant response rating, Galium: 100
galium; [26]
  Plant response rating, Galium: 100
Wheat [2]; [25]
  Plant response rating, Wheat: 90
Wheat [2]; [26]
  Plant response rating, Wheat: 30
Green foxtail [3]; 500 g ai/ha
  Foxtail, Green plant response rating: 100
Green foxtail [3]; [27]
  Plant response rating, Foxtail, Green: 100
pigweed, palmer [4]; [25]
  Plant response rating, Pigweed, Palmer: 100
pigweed, palmer [4]; [26]
  Plant response rating, Pigweed, Palmer: 60
Soybean [5]; [25]
  Plant response rating, Soybean: 100
Soybean [5]; [26]
  Plant response rating, Soybean: 100
Blackgrass [6]; 500 g ai/ha
  Blackgrass plant response rating: 100
Blackgrass [6]; [27]
  Plant response rating, Blackgrass: 80
Blackgrass [7]; [25]
  Plant response rating, Blackgrass: 100
Blackgrass [7]; [26]
  Plant response rating, Blackgrass: 60
pigweed, palmer [8]; 500 g ai/ha
  Pigweed, Palmer plant response rating: 100
pigweed, palmer [8]; [27]
  Plant response rating, Pigweed, Palmer: 90
Ragweed [9]; [25]
  Plant response rating, Ragweed: 80
Ragweed [9]; [26]
  Plant response rating, Ragweed: 60
sedge, umbrella
  Plant response rating, Sedge, Umbrella (Flood): 65
horseweed; [25]
  Plant response rating, Horseweed: 90
horseweed; [26]
  Plant response rating, Horseweed: 70
Barnyardgrass [10]; 500 g ai/ha
  Barnyardgrass plant response rating: 100
Barnyardgrass [10]; [27]
  Plant response rating, Barnyardgrass: 100
oat, wild [11]; 500 g ai/ha
  Oat, Wild plant response rating: 90
oat, wild [11]; [27]
  Plant response rating, Oat, Wild: 90
Corn [12]; 500 g ai/ha
  Corn plant response rating: 30
Corn [12]; [27]
  Plant response rating, Corn: 20
Soybean [13]; 500 g ai/ha
  Soybean plant response rating: 100
Soybean [13]; [27]
  Plant response rating, Soybean: 80
rice
  Plant response rating, Rice (Flood): 10
ryegrass, Italian [14]; 500 g ai/ha
  Ryegrass, Italian plant response rating: 100
ryegrass, Italian [14]; [27]
  Plant response rating, Ryegrass, Italian: 90
Kochia [15]; 500 g ai/ha
  Kochia plant response rating: 100
Kochia [15]; [27]
  Plant response rating, Kochia: 100
Ragweed [16]; 500 g ai/ha
  Ragweed plant response rating: 100
Ragweed [16]; [27]
  Plant response rating, Ragweed: 0
Barnyardgrass [17]; [25]
  Plant response rating, Barnyardgrass: 90
Barnyardgrass [17]; [26]
  Plant response rating, Barnyardgrass: 30
Barnyardgrass [18]
  Plant response rating, Barnyardgrass (Flood): 15
ducksalad
  Plant response rating, Ducksalad (Flood): 60
oat, wild [19]; [25]
  Plant response rating, Oat, Wild: 90
oat, wild [19]; [26]
  Plant response rating, Oat, Wild: 60
Wheat [20]; 500 g ai/ha
  Wheat plant response rating: 80
Wheat [20]; [27]
  Plant response rating, Wheat: 30
Green foxtail [21]; [25]
  Plant response rating, Foxtail, Green: 80
Green foxtail [21]; [26]
  Plant response rating, Foxtail, Green: 50
Kochia [22]; [25]
  Plant response rating, Kochia: 80
Kochia [22]; [26]
  Plant response rating, Kochia: 50
ryegrass, Italian [23]; [25]
  Plant response rating, Ryegrass, Italian: 100
ryegrass, Italian [23]; [26]
  Plant response rating, Ryegrass, Italian: 90
